How the values were obtained:
[1] = biological target: ACE (angiotensin converting enzyme) (Homo sapiens, UniProt P12821); experiment: ACE inhibition IC50; type: biochemical
[2] = biological target: NEP (neutral endopeptidase) (Homo sapiens, UniProt P08473); experiment: NEP inhibition IC50; type: biochemical
Chain of NEP (neutral endopeptidase) (P08473 whole entry, species assumed): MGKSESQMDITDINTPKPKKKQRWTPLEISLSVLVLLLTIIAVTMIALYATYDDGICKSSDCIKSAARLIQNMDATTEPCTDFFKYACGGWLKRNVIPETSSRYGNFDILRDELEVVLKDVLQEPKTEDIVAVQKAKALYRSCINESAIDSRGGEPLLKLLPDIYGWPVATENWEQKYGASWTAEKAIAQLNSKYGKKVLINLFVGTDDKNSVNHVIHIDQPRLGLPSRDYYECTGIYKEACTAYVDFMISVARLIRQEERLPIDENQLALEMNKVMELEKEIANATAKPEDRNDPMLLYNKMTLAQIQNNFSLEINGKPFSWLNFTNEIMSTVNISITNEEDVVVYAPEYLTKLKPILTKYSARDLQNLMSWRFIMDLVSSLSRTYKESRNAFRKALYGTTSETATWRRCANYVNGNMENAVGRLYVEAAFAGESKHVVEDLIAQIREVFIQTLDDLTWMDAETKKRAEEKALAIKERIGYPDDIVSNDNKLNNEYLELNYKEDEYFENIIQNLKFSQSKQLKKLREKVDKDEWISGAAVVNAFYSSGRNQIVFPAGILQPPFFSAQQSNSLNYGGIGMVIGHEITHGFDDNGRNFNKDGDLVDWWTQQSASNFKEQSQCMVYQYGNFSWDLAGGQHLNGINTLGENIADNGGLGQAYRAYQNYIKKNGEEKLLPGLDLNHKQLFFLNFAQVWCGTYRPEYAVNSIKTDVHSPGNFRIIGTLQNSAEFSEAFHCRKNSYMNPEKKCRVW

Chain of ACE (angiotensin converting enzyme) (P12821 30-1306, species assumed): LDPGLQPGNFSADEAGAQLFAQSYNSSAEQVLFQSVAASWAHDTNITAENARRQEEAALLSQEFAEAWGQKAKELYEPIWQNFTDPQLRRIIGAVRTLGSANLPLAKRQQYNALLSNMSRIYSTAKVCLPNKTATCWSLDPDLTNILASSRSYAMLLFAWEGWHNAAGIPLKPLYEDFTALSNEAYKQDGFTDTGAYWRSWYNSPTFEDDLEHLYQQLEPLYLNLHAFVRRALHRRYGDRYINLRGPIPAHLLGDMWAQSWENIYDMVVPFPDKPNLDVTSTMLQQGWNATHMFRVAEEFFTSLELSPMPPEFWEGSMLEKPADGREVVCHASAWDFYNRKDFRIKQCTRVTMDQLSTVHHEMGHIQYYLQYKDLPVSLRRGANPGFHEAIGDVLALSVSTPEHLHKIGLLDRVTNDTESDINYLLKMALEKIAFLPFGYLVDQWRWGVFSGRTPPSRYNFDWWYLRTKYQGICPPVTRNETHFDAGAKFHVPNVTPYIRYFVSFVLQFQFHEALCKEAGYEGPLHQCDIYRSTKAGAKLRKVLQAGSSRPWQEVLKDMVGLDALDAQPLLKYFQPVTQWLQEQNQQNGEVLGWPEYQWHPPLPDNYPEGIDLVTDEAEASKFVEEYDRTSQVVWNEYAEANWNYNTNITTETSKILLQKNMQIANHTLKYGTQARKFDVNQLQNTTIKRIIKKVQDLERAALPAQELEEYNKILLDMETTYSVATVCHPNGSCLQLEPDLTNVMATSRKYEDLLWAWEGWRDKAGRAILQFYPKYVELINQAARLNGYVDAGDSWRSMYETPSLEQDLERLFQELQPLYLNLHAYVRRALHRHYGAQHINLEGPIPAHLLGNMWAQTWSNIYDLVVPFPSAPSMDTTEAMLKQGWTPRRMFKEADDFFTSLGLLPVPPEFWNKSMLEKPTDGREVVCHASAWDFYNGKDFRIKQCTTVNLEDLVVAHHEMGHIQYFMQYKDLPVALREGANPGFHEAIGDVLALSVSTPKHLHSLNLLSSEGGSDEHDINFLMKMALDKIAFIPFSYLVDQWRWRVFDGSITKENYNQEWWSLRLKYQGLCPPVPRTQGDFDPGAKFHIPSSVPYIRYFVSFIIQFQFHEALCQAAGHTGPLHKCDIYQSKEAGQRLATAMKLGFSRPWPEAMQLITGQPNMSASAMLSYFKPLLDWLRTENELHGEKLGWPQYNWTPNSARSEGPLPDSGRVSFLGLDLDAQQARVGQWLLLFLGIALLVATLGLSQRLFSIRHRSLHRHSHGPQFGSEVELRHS

Row | Compound | IC50 [1] [µM] | IC50 [2] [µM]
1 | CCOC(=O)[C@H](CNC(=O)[C@H](CCCCNC(=O)OCc1ccccc1)NS(C)(=O)=O)N[C@@H](Cc1ccccc1)C(=O)N[C@@H](Cc1ccc(O)cc1)C(=O)O | > 1 | > 0.3
2 | CCOC(=O)[C@H](CNC(=O)[C@H](CCCCN)NS(C)(=O)=O)N[C@@H](Cc1ccccc1)C(=O)N[C@@H](Cc1ccc(O)cc1)C(=O)O | > 1 | 0.3
3 | CCOC(=O)[C@H](Cc1ccc(O)cc1)NC(=O)[C@H](Cc1ccccc1)N[C@@H](CNC(=O)[C@H](CCCCNC(=O)OCc1ccccc1)NS(C)(=O)=O)C(=O)O | 0.05 | 0.038
4 | CCOC(=O)[C@H](Cc1ccc(O)cc1)NC(=O)[C@H](Cc1ccccc1)N[C@@H](CNC(=O)[C@H](CCCCN)NS(C)(=O)=O)C(=O)O | 0.65 | 0.04
5 | CS(=O)(=O)N[C@@H](CCCCN)C(=O)NC[C@H](N[C@@H](Cc1ccccc1)C(=O)N[C@@H](Cc1ccc(O)cc1)C(=O)OCCc1ccccc1)C(=O)O | 0.175 | 0.068
6 | CCN=C(NCC)NCCCC[C@H](NS(C)(=O)=O)C(=O)NC[C@H](N[C@@H](Cc1ccccc1)C(=O)N[C@@H](Cc1ccc(O)cc1)C(=O)O)C(=O)O | 0.008 | 0.095
7 | CS(=O)(=O)N[C@@H](CCCCNC(=O)OCc1ccccc1)C(=O)NC[C@H](N[C@@H](Cc1ccccc1)C(=O)N[C@@H](Cc1ccc(O)cc1)C(=O)O)C(=O)O | 0.009 | 0.018
8 | CS(=O)(=O)Nc1cccc(C[C@H](NC(=O)[C@H](Cc2ccccc2)N[C@@H](CNC(=O)[C@H](CCCCN)NS(C)(=O)=O)C(=O)O)C(=O)O)c1 | 0.015 | 0.025
9 | CCC[C@H](N[C@@H](CNC(=O)[C@H](CCCCNC(=O)OCc1ccccc1)NS(C)(=O)=O)C(=O)O)C(=O)N[C@@H](Cc1cccc(NS(C)(=O)=O)c1)C(=O)OCC | 0.4 | 0.07
10 | CCC[C@H](N[C@@H](CNC(=O)[C@H](CCCCN)NS(C)(=O)=O)C(=O)O)C(=O)N[C@@H](Cc1cccc(NS(C)(=O)=O)c1)C(=O)O | 0.04 | 0.2
11 | CS(=O)(=O)N[C@@H](CCCCNC(=O)OCc1ccccc1)C(=O)NC[C@H](N[C@H](C(=O)N[C@@H](Cc1ccc(O)cc1)C(=O)O)C1CCCCC1)C(=O)O | 0.25 | > 0.3
12 | CS(=O)(=O)N[C@@H](CCCCN)C(=O)NC[C@H](N[C@H](C(=O)N[C@@H](Cc1ccc(O)cc1)C(=O)O)C1CCCCC1)C(=O)O | 0.121 | > 0.3
13 | CS(=O)(=O)N[C@@H](CCCCN)C(=O)NC[C@H](NC1(C(=O)N[C@@H](Cc2ccc(O)cc2)C(=O)O)CC1)C(=O)O | 0.15 | > 0.3
14 | CS(=O)(=O)N[C@@H](CCCCN)C(=O)NC[C@H](NC1(C(=O)N[C@@H](Cc2ccc(O)cc2)C(=O)O)CCC1)C(=O)O | – | 0.042
15 | CS(=O)(=O)N[C@@H](CCCCN)C(=O)NC[C@H](NC1(C(=O)N[C@@H](Cc2ccc(O)cc2)C(=O)O)CCCC1)C(=O)O | 0.045 | 0.035
16 | CS(=O)(=O)N[C@@H](CCCCN)C(=O)NC[C@H](NC1(C(=O)N[C@@H](Cc2ccc(O)cc2)C(=O)O)CCCCC1)C(=O)O | – | 0.19
17 | COC(=O)[C@H](CNC(=O)[C@H](CCCCNC(=O)OCc1ccccc1)NS(C)(=O)=O)N[C@H](C(=O)N[C@@H](Cc1ccc(O)cc1)C(=O)O)C(C)C | > 1 | 0.24
18 | COC(=O)[C@H](CNC(=O)[C@H](CCCCN)NS(C)(=O)=O)N[C@H](C(=O)N[C@@H](Cc1ccc(O)cc1)C(=O)O)C(C)C | > 1 | > 0.3
19 | CC(C)[C@H](N[C@@H](CNC(=O)[C@H](CCCCNC(=O)OCc1ccccc1)NS(C)(=O)=O)C(=O)O)C(=O)N[C@@H](Cc1ccc(O)cc1)C(=O)O | 0.03 | 0.002
20 | CC(C)[C@H](N[C@@H](CNC(=O)[C@H](CCCCN)NS(C)(=O)=O)C(=O)O)C(=O)N[C@@H](Cc1ccc(O)cc1)C(=O)O | 0.05 | 0.007
21 | CCC[C@H](N[C@@H](CNC(=O)[C@H](CCCCNC(=O)OCc1ccccc1)NS(C)(=O)=O)C(=O)O)C(=O)N[C@@H](Cc1ccc(O)cc1)C(=O)OC | 0.3 | 0.078
22 | CCC[C@H](N[C@@H](CNC(=O)[C@H](CCCCN)NS(C)(=O)=O)C(=O)O)C(=O)N[C@@H](Cc1ccc(O)cc1)C(=O)OC | – | 0.27
23 | CCC[C@H](N[C@@H](CNC(=O)[C@H](CCCCNC(=O)OCc1ccccc1)NS(C)(=O)=O)C(=O)O)C(=O)N[C@@H](Cc1ccc(O)cc1)C(=O)O | 0.015 | 0.002
24 | CCC[C@H](N[C@@H](CNC(=O)[C@H](CCCCN)NS(C)(=O)=O)C(=O)O)C(=O)N[C@@H](Cc1ccc(O)cc1)C(=O)O | 0.03 | 0.006
25 | CS(=O)(=O)N[C@@H](CCCCN)C(=O)NC[C@H](NC(C(=O)N[C@@H](Cc1ccc(O)cc1)C(=O)O)C1CC1)C(=O)O (single isomer, unassigned) [listing 1 of 2 here] | 0.015 | 0.04
26 | CS(=O)(=O)N[C@@H](CCCCN)C(=O)NC[C@H](NC(C(=O)N[C@@H](Cc1ccc(O)cc1)C(=O)O)C1CC1)C(=O)O (single isomer, unassigned) [listing 2 of 2 here] | 0.3 | > 0.3
27 | CS(=O)(=O)N[C@@H](CCCCN)C(=O)NC[C@H](N[C@@H](Cc1ccccc1)C(=O)N[C@@H](Cc1ccc(O)cc1)C(=O)O)C(=O)O [drawing 100: R1=CH3SO2NH; R5=OH; R6=OH; Z=NH2] | 0.05 | 0.035
28 | O=C(CCCCCNC(=O)OCc1ccccc1)NC[C@H](N[C@@H](Cc1ccccc1)C(=O)N[C@@H](Cc1ccc(O)cc1)C(=O)O)C(=O)O [drawing 100: R1=H; R5=OH; R6=OH; Z=CbzNH] | 0.065 | 0.03
29 | NCCCCCC(=O)NC[C@H](N[C@@H](Cc1ccccc1)C(=O)N[C@@H](Cc1ccc(O)cc1)C(=O)O)C(=O)O [drawing 100: R1=H; R5=OH; R6=OH; Z=NH2] | 0.06 | 0.016

— US5298492A, “Diamino acid derivatives as antihypertensives” (Schering Corporation, priority 1992, dated 1994)
